From BindingDB's records for patent US20240336642 (The General Hospital, 2024)

The compounds below were run against T1, Polyunsaturated fatty acid lipoxygenase ALOX12/ALOX15 (Homo sapiens, UniProt P16050+P18054) (assay: Biological Activity of Exemplified Compounds as Inhibitors of 12/15-LOX).
T1 sequence (P16050 whole entry): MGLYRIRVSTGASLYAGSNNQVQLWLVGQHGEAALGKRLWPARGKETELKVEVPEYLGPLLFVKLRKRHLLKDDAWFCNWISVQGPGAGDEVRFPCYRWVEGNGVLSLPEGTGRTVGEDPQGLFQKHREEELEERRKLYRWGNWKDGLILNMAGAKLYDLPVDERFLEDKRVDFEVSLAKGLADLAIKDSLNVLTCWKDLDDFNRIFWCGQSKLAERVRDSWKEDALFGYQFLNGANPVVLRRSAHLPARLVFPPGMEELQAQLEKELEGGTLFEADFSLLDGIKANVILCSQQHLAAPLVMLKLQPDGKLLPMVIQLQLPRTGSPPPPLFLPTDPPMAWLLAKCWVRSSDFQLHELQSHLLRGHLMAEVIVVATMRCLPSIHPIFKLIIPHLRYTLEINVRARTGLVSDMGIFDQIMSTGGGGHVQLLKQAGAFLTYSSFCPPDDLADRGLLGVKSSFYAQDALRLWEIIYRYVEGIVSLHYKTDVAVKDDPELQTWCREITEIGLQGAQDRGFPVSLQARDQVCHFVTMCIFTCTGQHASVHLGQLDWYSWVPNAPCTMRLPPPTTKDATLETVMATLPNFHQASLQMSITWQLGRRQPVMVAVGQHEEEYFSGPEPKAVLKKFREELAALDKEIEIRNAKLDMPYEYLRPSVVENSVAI
T1 sequence (P18054 whole entry): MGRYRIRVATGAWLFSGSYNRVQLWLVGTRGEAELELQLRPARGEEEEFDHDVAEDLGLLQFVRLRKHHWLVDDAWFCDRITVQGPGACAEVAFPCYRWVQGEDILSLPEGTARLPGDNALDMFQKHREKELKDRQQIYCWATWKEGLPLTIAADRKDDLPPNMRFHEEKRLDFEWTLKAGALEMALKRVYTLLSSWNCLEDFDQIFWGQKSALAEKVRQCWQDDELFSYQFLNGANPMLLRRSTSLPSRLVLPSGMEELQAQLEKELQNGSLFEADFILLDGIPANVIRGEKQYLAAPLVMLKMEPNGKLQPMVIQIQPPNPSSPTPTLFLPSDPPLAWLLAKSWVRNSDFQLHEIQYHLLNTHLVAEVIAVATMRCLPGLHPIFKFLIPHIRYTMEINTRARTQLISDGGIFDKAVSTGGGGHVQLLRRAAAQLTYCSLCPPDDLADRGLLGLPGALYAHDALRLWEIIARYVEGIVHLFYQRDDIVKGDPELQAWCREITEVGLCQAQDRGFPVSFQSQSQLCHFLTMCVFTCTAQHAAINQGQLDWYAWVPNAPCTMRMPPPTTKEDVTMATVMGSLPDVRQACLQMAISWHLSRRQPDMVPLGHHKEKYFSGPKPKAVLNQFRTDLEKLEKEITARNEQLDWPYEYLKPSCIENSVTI

| IC50 [nM] | SMILES |
| --- | --- |
| 97 | CNc1oc(-c2cc(Cl)cc(Cl)c2OC(F)F)nc1C#N [US20240336642, Compound 4] |
| 380 | CNc1oc(-c2cc(Cl)cc(OC)c2Cl)nc1C#N [US20240336642, Compound 9] |
| > 20000 | N#Cc1nc(-c2cc(Cl)cc(Cl)c2F)oc1NCCCCCO [US20240336642, Compound 25] |
